These results are taken from the METLIN SMRT retention time set (Domingo-Almenara et al. 2019).

The data set is described as follows: gradient 5% acetonitrile 3 min, to 50% in 2 min, to 85% in 15 min, held 3 min, 100 µL/min. The following applies: column: Zorbax Extend-C18 2.1 x 50 mm; eluents: water / acetonitrile, 0.1% formic acid. The method in brief: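 Values are retention times taken from adduct peaks that software picked and an analyst inspected. The pure standards were run as mixtures of ~100 molecules on HPLC linked to a quadrupole time-of-flight mass spectrometer, in positive and negative ionization mode. A Zorbax Extend-C18 column (2.1 × 50 mm, 1.8 μm) was used at 100 μL/min with water and acetonitrile, each including 0.1% formic acid.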
The molecule `Fc1cccc(-c2nc(-c3ccc(-n4cccn4)nc3)no2)c1` gave an RP-LC retention time of 1220 s.
Next, `O=C(CCCc1nc2cccnc2n1Cc1ccc(F)cc1)N1CCCC1`: 707 s.
Next, `OC[C@@H]1CNC[C@H]1C1CCN(Cc2cccc(Cl)c2F)CC1`: 806 s.
`Cc1ccc(CNC(=O)C2CCN(S(=O)(=O)c3cc(C(=O)N(C)C)cs3)CC2)cc1` displayed an RP-LC retention time of 762 s.
`C=C(C)COc1ccc2oc(C)c(C(=O)O)c2c1`: the RP-LC retention time was found to be 879 s.
`COc1ccc(S(=O)(=O)Nc2cc(-c3cn4ccccc4n3)ccc2C)cc1C` registered an RP-LC retention time of 682 s.
With `CC1Cc2ccccc2N1C(=O)Cc1cc(-c2ccc(F)cc2)on1` (stereo not given), the RP-LC retention time amounted to 1000 s.
The molecule `O=c1c2cc(-c3cccs3)nn2cnn1Cc1nc(-c2cccc(Br)c2)no1` came in with an RP-LC retention time of 1150 s.
In turn, `CC(=O)N1N=C(c2ccccc2NS(C)(=O)=O)CC1c1ccc2ncccc2c1` (stereo not given) displayed an RP-LC retention time of 599 s.
On to `COc1ccc(Cl)cc1NS(=O)(=O)c1cc2c(s1)CCN(C(=O)C1CC1)C2`, for which the RP-LC retention time turned out to be 883 s.
With `COc1ccc(Cc2nc3nccc(-c4cc5ccccc5o4)n3n2)cc1` the figure was 1090 s; with `Cc1nc(-c2cn(C(C)C)c3ncccc23)sc1C(=O)NC1CCCC1`, 1000 s.
Consider `O=C(Cn1ccn2nc(-c3ccccc3)c(CO)c2c1=O)Nc1ccccc1C(F)(F)F`, for which the RP-LC retention time is 830 s.
With `Cn1c(=O)c(=O)n(CC(=O)NCc2cccc(Br)c2)c2cccnc21` the figure was 717 s; with `COc1ccc(-c2cn3c(CC(=O)N4CCOCC4)csc3n2)cc1OC`, 607 s.
`Cc1ccccc1NC(=O)Nc1ccc2nncn2c1` came in with an RP-LC retention time of 668 s.
With `CC(=O)c1cccc(NC(=O)Nc2cccc(-c3ccc(N4CCCC4)nn3)c2)c1` the figure was 654 s.
`CCOc1ccc(NC(=O)c2oc3ccc(CC)cc3c2C)c2cccnc12` registered an RP-LC retention time of 837 s.
Turning to `Cc1cc(Cl)ccc1NC(=O)N1C[C@@H]2C[C@H](NC(=O)c3ccccc3)[C@H]1C2`, the RP-LC retention time turned out to be 907 s.
Next, `Cn1nccc1C(=O)N1CCN(c2cc(-c3ccccc3)[nH]n2)CC1`: 671 s; `COc1cc(C(=O)Nc2sc3c(c2C(N)=O)CCC(C)C3)cc(OC)c1OC` (stereo not given): 1010 s; `CCc1ccc(-c2cc(C(N)=O)[nH]n2)cc1`: 708 s.
For `Cc1cccc(CN2C[C@@H]3C(=O)N(CCc4ccccc4)C(=O)[C@@H]3C2)c1`, the RP-LC retention time was determined as 777 s.
Molecule `COc1ccc(-c2nc3cnccn3c2Nc2ccc(C(C)C)cc2)cc1OC` had an RP-LC retention time of 936 s.
As to `O=C(CSc1nccn(-c2ccc(F)c(F)c2)c1=O)NCc1ccccc1Cl`, the RP-LC retention time came out at 816 s.
`CCCCC(=O)Nc1cnc(N2CCNCC2)c(C(=O)N2CCCCC2C)c1` (stereo not given) came in with an RP-LC retention time of 619 s.
Next, `O=C(Cn1ccn2nc(-c3ccc(F)cc3)c(CO)c2c1=O)Nc1cc(F)cc(F)c1`: 880 s; `O=C(Cn1cc(C(=O)c2ccco2)c2ccccc21)NCc1ccc2c(c1)OCCCO2`: 858 s; `COc1ccc(NC(=O)c2cn(C)nc2S(=O)(=O)N2CCC(C)CC2)c(F)c1`: 997 s.
On to `Cn1cc(CCN2CCC(C(=O)NCC3CCCO3)CC2)c2cccnc21` (stereo not given), for which the RP-LC retention time came out at 562 s.
As to `Cc1ccc(Sc2nccnc2N2CCCC(C(=O)NC3CCCCC3)C2)cc1` (stereo not given), the RP-LC retention time is 1150 s.
Turning to `OCc1cnc(SCc2cccc(C(F)(F)F)c2)n1Cc1ccc2c(c1)OCO2`, the RP-LC retention time is 649 s.
In turn, `COC(=O)c1ccc(-c2nc3cnccn3c2Nc2cc(OC)ccc2OC)cc1` registered an RP-LC retention time of 870 s.
`COc1ccc(-c2cc(C(F)(F)F)n3ncc(C(=O)NCc4cn(C)nc4C)c3n2)cc1OC`: the RP-LC retention time was 780 s.
For `CC(=O)N1CCc2cc(S(=O)(=O)C(C)CC(=O)N3CCN(Cc4ccccc4)CC3)ccc21` (stereo not given), the RP-LC retention time was determined as 960 s.
With `CCn1cnc(S(=O)(=O)N2CCC(C(=O)NCCc3ccccc3)CC2)c1`, the RP-LC retention time came out at 697 s.
The molecule `COc1ccc(S(=O)(=O)NCc2cccnc2-c2ccc(C)cc2)cc1Cl` gave an RP-LC retention time of 743 s.
Take `CCCCNC(=O)Cn1c(=O)c2cnc(-c3ccccc3)nc2n(CC)c1=O`: the RP-LC retention time was determined as 937 s.
Consider `CC(C)OC(=O)COC(=O)c1cn(-c2ccc(F)cc2)c(=O)c2ccccc12`, for which the RP-LC retention time stood at 1090 s.
With `Cc1ccc(-n2nc(N3CCCC(C(=O)Nc4ccc(F)cc4F)C3)ccc2=O)cc1Cl` (stereo not given) the figure was 1020 s.
With `CCN(CC)c1nc(C(=O)N2CCC(N3CCCCC3)CC2)nc2nc(C)cc(C)c12` the figure was 568 s.
The molecule `Cc1cc(=O)n(CC(=O)Nc2cccc(C)c2C)c(N2CCOCC2)n1` had an RP-LC retention time of 673 s.
Next, `Oc1ccc2c3c1O[C@H]1c4oc5ccccc5c4C[C@@]4(O)C(C2)N(CC2CC2)CCC314` (stereo not given in full): 702 s.
Regarding `Cc1ccc(NS(=O)(=O)c2cc(-c3cc(C(F)(F)F)on3)sc2C)cc1Cl`, the RP-LC retention time stood at 1190 s.
For `O=C(Nc1cnc(-c2ccccc2)nc1)c1ccc(F)c(F)c1`, the RP-LC retention time came out at 1030 s.
Next, `CCCn1ccc2sc(C)c(C(=O)NCc3ccccc3OCC)c2c1=O`: 982 s; `Brc1ccc([C@H]2CN3CCSC3=N2)cc1`: 645 s.
As to `CN(CCNC(=O)c1ncoc1-c1ccco1)Cc1ccccc1`, the RP-LC retention time came out at 630 s.
With `Cc1cc2c(cc1S(=O)(=O)N1CCCC1C(=O)Nc1cccc(C)c1C)OCC(=O)N2` (stereo not given) the figure was 789 s.
`O=C(NC1CCCC1)c1cc(N2CCCC2)n2nccc2n1` showed an RP-LC retention time of 908 s.
Molecule `CC(C)CNc1nc(-c2ccc([N+](=O)[O-])cc2)nc2ccccc12` registered an RP-LC retention time of 821 s.
On to `CCCNC(=O)C1CCN(Cc2cn(C)c3ccc(Cl)cc23)CC1`, for which the RP-LC retention time stood at 650 s.
Turning to `Cc1ccc(Cl)cc1NC(=O)N1CCC(n2c(-c3ccco3)nc3cccnc32)C1` (stereo not given), the RP-LC retention time came out at 835 s.
In turn, `CCN1CCN(C(=O)Nc2ccc(Br)cc2F)c2cccnc21` returned an RP-LC retention time of 659 s.
Molecule `CC(=O)Nc1ccc(NC(=O)C(=O)NCCN2CCN(c3ccc(Cl)cc3)CC2)cc1` registered an RP-LC retention time of 588 s.
Molecule `CC1CCN(S(=O)(=O)c2nn(C)cc2C(=O)O)CC1` came in with an RP-LC retention time of 707 s.
Next, `Cc1nc(-c2ccc(N3CCN(C(=O)c4ccc(Br)o4)CC3)cc2)no1`: 912 s; `CCCCS(=O)(=O)c1cc2c(cc1NC(=O)Cc1cccc(F)c1)n(C)c(=O)n2C`: 855 s.
With `O=C(Nc1cccc(Cl)c1)c1nn2c(C(F)(F)F)cc(-c3ccco3)nc2c1Cl`, the RP-LC retention time was determined as 1230 s.
With `CC(C)NC(=O)CN1CCN(Cc2nc(-c3ccc(N4CCCCC4)nc3)no2)CC1` the figure was 594 s; with `CCCC(=O)N1CCc2c([nH]c3ccccc23)C1c1ccccc1` (stereo not given), 1080 s; with `Cc1ccc(-n2ncc3c(N4CCN(C)CC4)ncnc32)cc1C`, 648 s.
Next, `CCOc1ccccc1CNC(=O)c1cc(NC(C)=O)cc2nc(C)ccc12`: 653 s; `c1ccc2c(c1)[nH]c1c3ccccc3sc21`: 1160 s; `COCCNC(=O)NCc1ccc2c(c1)N(C(=O)c1ccccc1)CC2`: 696 s.
On to `CC(C)CN1CCCCc2cc(C(N)=O)sc21`, for which the RP-LC retention time is 829 s.
With `Cn1nc(C(=O)NCc2ccc3c(c2)OCO3)c2c1CCN(C(=O)c1ccco1)C2` the figure was 725 s.
As to `Cc1csc(COc2ccc(C(=O)Nc3ccccc3OC(F)(F)F)cc2)n1`, the RP-LC retention time was found to be 933 s.
`COc1ccc(NC(=O)c2cnc3c(c2)c(=O)n(C)c(=O)n3-c2ccccc2)c(OC)c1` returned an RP-LC retention time of 844 s.
With `O=C1CCC(C(=O)N2C[C@@H](COCC3CC3)[C@H](c3ccccn3)C2)=NN1` the figure was 583 s; with `O=C(Nc1cnc(N2CCCCC2)nc1)C1CCCC1`, 834 s; with `CNC(=O)C1CCCN(c2nc3ncn(CC(=O)Nc4cc(C)cc(C)c4)c(=O)c3s2)C1` (stereo not given), 694 s.
Take `CC(C)CC(=O)N1CCc2c(c(-c3nnc(-c4ccccc4Cl)o3)nn2C)C1`: the RP-LC retention time was 852 s.
In turn, `CC1CCN(S(=O)(=O)c2ccc3nn(C)c(=O)n3c2)CC1` returned an RP-LC retention time of 744 s.
For the molecule `COc1ccccc1NC(=O)N1CCCC1c1cc(C(C)C)on1` (stereo not given), the RP-LC retention time stood at 950 s.
With `Cc1noc(-c2ccc(OC3CN(S(=O)(=O)c4c(C)noc4C)C3)cc2)n1` the figure was 943 s.
Next, `CCCCN(C(=O)c1ccc(C)cc1)C1(C(=O)NCc2ccccc2)CCN(C(C)=O)CC1`: 901 s; `CCOC(=O)c1cccc(Nc2c(C(=O)N3CCCCC3C)cnc3nc(C)ccc23)c1` (stereo not given): 666 s.
`Cc1cc(N2CCC(NC(=O)Nc3cccc(Cl)c3F)C2=O)ccc1F` (stereo not given) yielded an RP-LC retention time of 945 s.
The molecule `Cc1noc(C)c1CN1CCC(NC(=O)c2cc(Cl)ccc2F)C1` (stereo not given) displayed an RP-LC retention time of 570 s.
